Data on three molecules can be found in article PMC8906456, “Structural insights into the catalytic and inhibitory mechanisms of the flavin transferase FmnB in Listeria monocytogenes” (MedComm, 2022).

The assay concerns the target T1, FmnB (Listeria monocytogenes, UniProt A0A0H3GJF7).
T1 construct: gene LMRG_02181; structure covers about residues 36-357
T1 sequence (A0A0H3GJF7 20-360): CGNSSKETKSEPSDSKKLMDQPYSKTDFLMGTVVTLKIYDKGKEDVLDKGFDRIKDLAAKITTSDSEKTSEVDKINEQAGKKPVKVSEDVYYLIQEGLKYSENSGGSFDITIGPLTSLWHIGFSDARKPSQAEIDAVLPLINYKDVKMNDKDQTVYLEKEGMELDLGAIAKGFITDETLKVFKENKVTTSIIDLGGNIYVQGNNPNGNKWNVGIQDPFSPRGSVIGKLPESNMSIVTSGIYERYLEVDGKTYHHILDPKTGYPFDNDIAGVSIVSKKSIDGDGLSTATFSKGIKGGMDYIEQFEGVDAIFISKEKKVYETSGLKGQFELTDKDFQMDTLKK
Kind of assay: inhibition of PplA FMNylation, in-gel flavin fluorescence. It counts as biochemical. As to conditions: 10 uM to 4 mM inhibitor; 100 uM FAD, 50 uM PplA, 15 mM Mg2+, 16 °C; competitive.
For `Nc1ncnc2c1ncn2[C@@H]1O[C@H](COP(=O)(O)OP(=O)(O)O)[C@@H](O)[C@H]1O` [ADP], the “inhibition of PplA FMNylation, in-gel flavin fluorescence” value (“inhibition of PplA FMNylation” below) is recorded as “ADP demonstrated a much stronger inhibitory ability against FmnB activity (Figure 4A)”.

With `Nc1ncnc2c1ncn2[C@@H]1O[C@H](COP(=O)(O)OP(=O)(O)OP(=O)(O)O)[C@@H](O)[C@H]1O` [ATP], the “inhibition of PplA FMNylation” value was “the enzymatic assays indicated that AMP, ADP and ATP could inhibit FmnB activity”.

On to `Nc1ncnc2c1ncn2[C@@H]1O[C@H](COP(=O)(O)O)[C@@H](O)[C@H]1O` [AMP], for which the “inhibition of PplA FMNylation” value was “the enzymatic assays indicated that AMP, ADP and ATP could inhibit FmnB activity”.
